The values that follow come from paper doi:10.1101/2021.12.13.472376v1 (bioRxiv, 2021).

One data set relates to GBM. To be noted: GBM patients treated with radiotherapy combined with TMZ; ref Stupp et al., 2005; cited from earlier work.
Data set [1] is described as follows: Water solubility / dissolution of the peptide. The format is physicochemical.

As for `Cn1nnc2c(C(N)=O)ncn2c1=O` [TMZ], the median survival in the data set with GBM is listed as 14.6 months. Consider RQIKIWFQNRRMKWGGTALDWSWLQTE [NBD], for which the water solubility result in data set [1] is on record as “poor”. In addition, the “dissolution of 1 mg peptide in 1000 μL 10% DMSO DPBS” value in data set [1] (1 mg in 1000 μL 10% DMSO DPBS, only a mixture with loose precipitation obtained) is “could not completely dissolve”.

On to YLGASVPSPDPLEPTGGTALDWSWLQTE [MTL-NBD], for which the water solubility entry in data set [1] was “good”. The “dissolution of 1 mg peptide in 200 μL normal saline or DPBS” value in data set [1] (1 mg in 200 μL normal saline or DPBS) is “completely dissolve”.
